Measurements reported in publication PMC5660193, “The antimalarial activity of the pantothenamide α-PanAm is via inhibition of pantothenate phosphorylation” (Scientific Reports, 2017).
Residue numbers refer to the chain shown, from its start.

How the values were obtained:
Assay type in all cases: biochemical
[1] = molecular target: T1, His6-CAB1 (Saccharomyces cerevisiae, UniProt Q04430); experiment: Kinase-Glo luminescent assay; settings: 10 µM compound, 100 µM pantothenate, 100 µM ATP, 10 mM MgCl2, pH 7.4, room temperature
T1 sequence (Q04430 1-367): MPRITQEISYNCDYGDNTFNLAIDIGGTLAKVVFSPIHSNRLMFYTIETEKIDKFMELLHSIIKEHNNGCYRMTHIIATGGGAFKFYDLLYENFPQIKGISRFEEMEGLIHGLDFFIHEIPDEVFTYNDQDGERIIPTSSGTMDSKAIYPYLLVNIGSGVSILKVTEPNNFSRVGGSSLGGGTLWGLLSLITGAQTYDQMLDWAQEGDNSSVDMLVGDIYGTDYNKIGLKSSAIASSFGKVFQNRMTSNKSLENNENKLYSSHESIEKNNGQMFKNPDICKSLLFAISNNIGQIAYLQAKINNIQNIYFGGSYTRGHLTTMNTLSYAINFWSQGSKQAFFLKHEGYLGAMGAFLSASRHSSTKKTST

[2] = molecular target: T2, Cab1p (yeast PanK) (Saccharomyces cerevisiae, UniProt Q04430); experiment: radioactive pantothenate kinase assay, double reciprocal plots; settings: competitive with pantothenate; 2.5 mM ATP, 2.5 mM MgCl2, pH 7.4, 30 °C; enzyme source for Ki not restated (yeast extract as for Km)
T2 construct: gene CAB1; native untagged enzyme in cell-free extract of wild-type yeast
T2 sequence (Q04430 1-367): T1 sequence (Q04430 1-367)

[3] = molecular target: T1, His6-CAB1; experiment: radioactive pantothenate kinase assay; settings: 50 µM 14C-pantothenate, 2.5 mM ATP, 2.5 mM MgCl2, pH 7.4
[4] = molecular target: T3, His6-CAB1 (Saccharomyces cerevisiae, UniProt Q04430, G351S); experiment: radioactive pantothenate kinase assay; settings: 50 µM 14C-pantothenate, 2.5 mM ATP, 2.5 mM MgCl2, pH 7.4
T3 sequence (Q04430 1-367 G351S): T1 sequence (Q04430 1-367) with G351S

[5] = molecular target: T1, His6-CAB1; experiment: Kinase-Glo ATP depletion and LC-MS of phosphorylated product; settings: 10 µM compound, 100 µM ATP, no pantothenate, 10 mM MgCl2, pH 7.4, room temperature

Row | Ki [2] | Structure (SMILES) | inhibition at 10 μM [1] | relative enzyme activity [3] | relative enzyme activity [4] | Kinase-Glo ATP depletion and LC-MS of phosphorylated product [5]
1 |  | CSc1cccc(NC(=O)CCc2c(C)nc3c4cccnc4nn3c2C)c1 [NED7, 3-(2,4-dimethylpyrido-[2′,3′:3,4]pyrazolo[1,5-a]pyrimidin-3-yl)-N-(3-(methylthio)phenyl) propanamide] | resulted in increased luciferase activity in the presence of Cab1 |  |  | 
2 | 10.1 ± 0.85 µM | CC(CNC(=O)[C@H](O)C(C)(C)CO)C(=O)NCCc1ccccc1 (stereo partly drawn) [α-PanAm, (2 R)-2,4-dihydroxy-3,3-dimethyl-N-(2-methyl-3-oxo-3-(phenethylamino)propyl)butanamide] |  | PanK activities of purified His6-CAB1 and His6-cab1^G351S mutant proteins were measured | PanK activities of purified His6-CAB1 and His6-cab1^G351S mutant proteins were measured | detected the mass of phosphorylated α-PanAm (P-α-PanAm) in the presence of active Cab1
